Experimental data as given in PMC11968843, “Sulphostin-inspired N-phosphonopiperidones as selective covalent DPP8 and DPP9 inhibitors” (Nature Communications, 2025).
“And” between values parts separate entries of the source, which are not always exact repeats. Identical values can stand only once. Like-named read-outs stand apart in the source and are kept apart here.

Columns and labels:
[1] = target: T1, DPP8 (Homo sapiens, UniProt Q6V1X1); experiment: biochemical; type: biochemical
T1 construct: purchased Proteros Biostructures GmbH, Germany
T1 sequence (Q6V1X1 whole entry): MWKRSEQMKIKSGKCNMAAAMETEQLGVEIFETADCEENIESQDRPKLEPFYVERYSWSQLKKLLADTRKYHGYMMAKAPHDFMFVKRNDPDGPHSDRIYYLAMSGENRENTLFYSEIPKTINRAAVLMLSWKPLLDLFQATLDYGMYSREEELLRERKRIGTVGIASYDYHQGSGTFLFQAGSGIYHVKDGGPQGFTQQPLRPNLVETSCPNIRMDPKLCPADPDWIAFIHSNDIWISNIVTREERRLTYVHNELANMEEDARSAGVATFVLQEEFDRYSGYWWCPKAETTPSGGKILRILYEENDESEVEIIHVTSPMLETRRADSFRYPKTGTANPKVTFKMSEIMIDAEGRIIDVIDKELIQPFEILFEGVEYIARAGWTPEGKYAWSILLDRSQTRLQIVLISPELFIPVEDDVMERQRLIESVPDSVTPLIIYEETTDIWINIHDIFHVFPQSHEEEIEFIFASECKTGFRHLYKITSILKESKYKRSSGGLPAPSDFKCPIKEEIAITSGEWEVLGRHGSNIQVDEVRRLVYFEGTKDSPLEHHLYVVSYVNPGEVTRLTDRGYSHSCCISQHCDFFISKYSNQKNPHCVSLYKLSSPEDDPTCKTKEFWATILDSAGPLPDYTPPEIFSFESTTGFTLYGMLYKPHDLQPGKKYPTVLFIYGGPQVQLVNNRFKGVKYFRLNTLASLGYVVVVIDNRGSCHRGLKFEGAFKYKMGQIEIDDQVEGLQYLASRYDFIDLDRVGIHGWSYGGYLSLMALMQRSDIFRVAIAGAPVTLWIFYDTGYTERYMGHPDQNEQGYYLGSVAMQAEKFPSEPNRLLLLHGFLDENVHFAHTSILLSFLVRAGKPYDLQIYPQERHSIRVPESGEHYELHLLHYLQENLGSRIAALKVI
Summary of the method: (§1)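 Initial velocity of AMC release from fluorogenic GP-AMC substrate read for up to 60 min at 30 °C in HEPES/KOH pH 7.3 buffer with 1 mM DTT. Enzyme (10 nM) preincubated 45 min at 30 °C with inhibitor (0–100 μM, 1% DMSO). IC50 from four-parameter variable-slope fit of triplicates.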

[2] = target: T2, DPP4 (Homo sapiens, UniProt P27487); experiment: biochemical; type: biochemical; details: for DPP4 activity [%]: replicates
T2 construct: purchased Proteros Biostructures GmbH, Germany
T2 sequence (P27487 whole entry): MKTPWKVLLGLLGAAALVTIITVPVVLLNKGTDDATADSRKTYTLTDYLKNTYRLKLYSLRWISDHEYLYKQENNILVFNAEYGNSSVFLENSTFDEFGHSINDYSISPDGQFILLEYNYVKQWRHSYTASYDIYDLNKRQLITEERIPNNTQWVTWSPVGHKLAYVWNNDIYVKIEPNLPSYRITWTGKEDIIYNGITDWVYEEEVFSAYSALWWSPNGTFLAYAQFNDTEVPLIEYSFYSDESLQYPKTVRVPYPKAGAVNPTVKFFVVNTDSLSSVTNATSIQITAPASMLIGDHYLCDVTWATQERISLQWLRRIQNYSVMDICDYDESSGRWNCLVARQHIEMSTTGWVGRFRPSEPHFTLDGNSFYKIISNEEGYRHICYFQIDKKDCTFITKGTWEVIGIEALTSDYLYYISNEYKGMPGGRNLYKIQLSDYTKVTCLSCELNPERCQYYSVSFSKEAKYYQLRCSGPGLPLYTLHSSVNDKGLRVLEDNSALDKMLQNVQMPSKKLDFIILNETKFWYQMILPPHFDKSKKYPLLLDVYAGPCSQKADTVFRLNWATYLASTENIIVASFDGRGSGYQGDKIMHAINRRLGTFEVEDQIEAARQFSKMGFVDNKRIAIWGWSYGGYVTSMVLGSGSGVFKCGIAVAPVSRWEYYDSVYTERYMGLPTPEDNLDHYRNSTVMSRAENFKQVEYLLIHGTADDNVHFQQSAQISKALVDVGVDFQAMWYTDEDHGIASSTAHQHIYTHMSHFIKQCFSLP
Summary of the method: as §1

[3] = target: T1, DPP8; experiment: Time-dependent DPP8 inhibition kinetics (kobs, KI, kinact, kapp); type: biochemical
Summary of the method: (§2)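 Enzyme (10 nM) received 250 µM GP-AMC together with serially diluted inhibitor, and fluorescence was followed for up to 120 min at 30 °C. Progress curves were fitted for kobs, and kobs versus [I] gave kinact and KI. kapp = kinact/KI; triplicates, errors are standard errors of the fit.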

[4] = target: T3, DPP9 (Homo sapiens, UniProt Q86TI2); experiment: biochemical; type: biochemical; set-up: purchased Proteros Biostructures GmbH, Germany; details: for DPP9 activity [%]: replicates
T3 sequence (Q86TI2 whole entry): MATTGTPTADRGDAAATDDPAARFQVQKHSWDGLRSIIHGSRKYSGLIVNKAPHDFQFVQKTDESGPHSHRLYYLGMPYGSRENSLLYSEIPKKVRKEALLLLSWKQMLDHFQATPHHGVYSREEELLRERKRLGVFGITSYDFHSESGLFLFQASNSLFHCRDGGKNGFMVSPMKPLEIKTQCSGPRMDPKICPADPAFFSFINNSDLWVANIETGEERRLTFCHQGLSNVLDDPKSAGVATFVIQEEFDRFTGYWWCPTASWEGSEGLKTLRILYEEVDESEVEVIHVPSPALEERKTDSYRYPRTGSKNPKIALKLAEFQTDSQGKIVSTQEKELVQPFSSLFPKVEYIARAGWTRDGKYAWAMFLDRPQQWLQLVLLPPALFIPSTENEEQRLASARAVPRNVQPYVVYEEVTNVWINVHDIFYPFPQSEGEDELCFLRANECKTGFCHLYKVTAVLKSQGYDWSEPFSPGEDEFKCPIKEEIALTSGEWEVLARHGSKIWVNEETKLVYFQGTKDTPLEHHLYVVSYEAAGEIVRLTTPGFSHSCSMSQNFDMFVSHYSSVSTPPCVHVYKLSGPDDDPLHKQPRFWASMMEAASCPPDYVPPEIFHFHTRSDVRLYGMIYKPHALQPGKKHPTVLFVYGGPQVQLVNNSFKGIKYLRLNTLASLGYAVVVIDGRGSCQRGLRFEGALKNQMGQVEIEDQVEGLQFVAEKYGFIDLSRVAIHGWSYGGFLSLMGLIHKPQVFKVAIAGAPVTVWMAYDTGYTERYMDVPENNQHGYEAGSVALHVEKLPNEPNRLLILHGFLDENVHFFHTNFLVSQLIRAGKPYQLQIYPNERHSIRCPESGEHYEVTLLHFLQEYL
Summary of the method: as §1

[5] = target: T3, DPP9; experiment: Time-dependent DPP9 inhibition kinetics (kobs, KI, kinact, kapp); type: biochemical; set-up: purchased Proteros Biostructures GmbH, Germany
Summary of the method: as §2

[6] = target: T2, DPP4; type: biochemical
Description: To calculate the reaction rate of covalent bond formation between DPP proteins and inhibitor, kinact, KI and kapp was determined as previously described[30],[51]. […] Enzyme activity was measured for a maximum of 120 min at 30 °C, and fluorescence intensities were then plotted against time. Data was fitted to the following equation: Y=(vi/kobs)*(1−exp(−kobs*X)) using Graph-Pad Prism v10.2.3. The obtained pseudo-first-order rate constant was used to determine the maximum enzyme inhibition rate (kinact) and binding affinity (KI) by fitting the plot of kobs against inhibitor concentration to the following equation: Y=kinact/1+(KI/[I]) . The efficiency of covalent bond formation (kapp) was calculated by the ratio of kinact/KI. All measurements were performed in triplicates and error bars represent standard errors of the fit.

[7] = target: T4, HEK293 cell lysates (proteome-wide targets of probe 9) (Homo sapiens, UniProt P07195); experiment: Competitive ABPP / direct target identification with alkyne probe 9 in HEK293 cell lysates; type: binding, H. sapiens; details: protein LDHB
T4 construct: endogenous in cells; host or cells: HEK293 cell lysate
T4 sequence (P07195 whole entry): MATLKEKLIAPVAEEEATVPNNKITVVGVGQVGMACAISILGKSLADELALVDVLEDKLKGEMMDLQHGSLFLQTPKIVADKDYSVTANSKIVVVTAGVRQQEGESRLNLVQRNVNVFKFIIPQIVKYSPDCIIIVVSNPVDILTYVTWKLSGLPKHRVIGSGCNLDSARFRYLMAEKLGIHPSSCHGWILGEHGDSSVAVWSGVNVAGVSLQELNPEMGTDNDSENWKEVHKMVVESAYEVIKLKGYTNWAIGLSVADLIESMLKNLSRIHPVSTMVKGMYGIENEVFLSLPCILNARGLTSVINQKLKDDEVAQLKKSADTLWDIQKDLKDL

[8] = target: T5, HEK293 cell lysates (proteome-wide targets of probe 9) (Homo sapiens, UniProt Q9H6P5); experiment: as above; type: binding, H. sapiens; details: protein TASP1 (Threonine aspartase 1)
T5 construct: endogenous in cells; host or cells: HEK293 cell lysate
T5 sequence (Q9H6P5 whole entry): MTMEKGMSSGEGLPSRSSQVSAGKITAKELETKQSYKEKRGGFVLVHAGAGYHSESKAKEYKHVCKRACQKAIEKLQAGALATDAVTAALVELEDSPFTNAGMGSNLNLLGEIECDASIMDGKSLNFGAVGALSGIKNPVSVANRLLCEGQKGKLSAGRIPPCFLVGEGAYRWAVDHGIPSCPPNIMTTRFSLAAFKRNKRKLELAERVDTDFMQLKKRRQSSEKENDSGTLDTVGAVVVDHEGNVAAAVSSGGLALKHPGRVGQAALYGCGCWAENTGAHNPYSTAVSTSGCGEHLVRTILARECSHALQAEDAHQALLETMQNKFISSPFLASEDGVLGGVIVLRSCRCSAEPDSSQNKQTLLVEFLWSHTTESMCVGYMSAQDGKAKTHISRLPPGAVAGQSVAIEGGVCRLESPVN

[9] = target: T6, HEK293 cell lysates (proteome-wide targets of probe 9) (Homo sapiens, UniProt P09211); experiment: as above; type: binding, H. sapiens; details: protein GSTP1
T6 construct: endogenous in cells; host or cells: HEK293 cell lysate
T6 sequence (P09211 whole entry): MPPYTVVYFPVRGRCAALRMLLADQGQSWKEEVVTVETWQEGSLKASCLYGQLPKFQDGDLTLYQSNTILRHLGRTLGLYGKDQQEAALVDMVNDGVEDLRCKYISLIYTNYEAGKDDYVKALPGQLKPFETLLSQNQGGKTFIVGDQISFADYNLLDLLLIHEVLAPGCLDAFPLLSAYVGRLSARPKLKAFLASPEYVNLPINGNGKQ

[10] = target: T7, HEK293 cell lysates (proteome-wide targets of probe 9) (Homo sapiens, UniProt P07814); experiment: as above; type: binding, H. sapiens; details: protein EPRS
T7 construct: endogenous in cells; host or cells: HEK293 cell lysate
T7 sequence (P07814 whole entry): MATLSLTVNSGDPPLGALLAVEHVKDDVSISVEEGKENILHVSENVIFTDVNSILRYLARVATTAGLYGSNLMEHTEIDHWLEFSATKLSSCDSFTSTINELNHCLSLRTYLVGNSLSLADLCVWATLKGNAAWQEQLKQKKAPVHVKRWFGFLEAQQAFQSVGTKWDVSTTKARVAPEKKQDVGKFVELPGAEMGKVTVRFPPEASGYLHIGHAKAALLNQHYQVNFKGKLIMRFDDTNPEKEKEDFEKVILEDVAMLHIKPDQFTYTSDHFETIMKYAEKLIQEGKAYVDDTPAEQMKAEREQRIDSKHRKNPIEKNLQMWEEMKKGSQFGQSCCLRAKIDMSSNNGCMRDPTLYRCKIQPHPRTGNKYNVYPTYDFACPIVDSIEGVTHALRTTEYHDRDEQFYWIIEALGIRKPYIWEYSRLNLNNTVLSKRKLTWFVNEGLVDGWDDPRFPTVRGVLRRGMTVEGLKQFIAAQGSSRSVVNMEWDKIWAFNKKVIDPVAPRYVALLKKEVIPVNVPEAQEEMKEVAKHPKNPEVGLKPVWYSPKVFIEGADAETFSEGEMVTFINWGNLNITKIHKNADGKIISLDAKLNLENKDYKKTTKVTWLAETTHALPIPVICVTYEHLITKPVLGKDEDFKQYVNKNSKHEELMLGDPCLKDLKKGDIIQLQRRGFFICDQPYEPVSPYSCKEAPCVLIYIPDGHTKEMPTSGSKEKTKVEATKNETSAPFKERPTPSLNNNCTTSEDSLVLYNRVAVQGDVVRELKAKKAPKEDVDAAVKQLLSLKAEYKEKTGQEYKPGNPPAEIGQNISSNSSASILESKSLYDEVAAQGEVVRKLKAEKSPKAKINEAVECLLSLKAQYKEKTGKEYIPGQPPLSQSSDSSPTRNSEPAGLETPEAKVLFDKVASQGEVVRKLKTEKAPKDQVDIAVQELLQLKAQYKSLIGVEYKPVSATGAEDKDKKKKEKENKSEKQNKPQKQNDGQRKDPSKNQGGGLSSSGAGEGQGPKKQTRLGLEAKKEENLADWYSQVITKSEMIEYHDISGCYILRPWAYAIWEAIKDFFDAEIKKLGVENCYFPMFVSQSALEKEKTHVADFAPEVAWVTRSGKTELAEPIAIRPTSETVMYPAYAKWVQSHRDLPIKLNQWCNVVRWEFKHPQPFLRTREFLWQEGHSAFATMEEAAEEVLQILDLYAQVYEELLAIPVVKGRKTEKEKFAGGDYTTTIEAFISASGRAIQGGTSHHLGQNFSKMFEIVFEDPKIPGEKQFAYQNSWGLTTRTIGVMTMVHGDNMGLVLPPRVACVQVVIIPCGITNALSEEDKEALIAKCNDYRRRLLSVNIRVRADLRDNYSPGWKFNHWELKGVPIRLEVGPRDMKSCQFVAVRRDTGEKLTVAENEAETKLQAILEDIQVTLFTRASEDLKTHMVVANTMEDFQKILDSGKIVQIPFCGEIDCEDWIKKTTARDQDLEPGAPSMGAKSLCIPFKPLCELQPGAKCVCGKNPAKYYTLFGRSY

[11] = irreversible inhibition, fit of kobs vs inhibitor concentration

CCCCCc1ccc(SCCP(=O)(OCC)N2CCC[C@H](N)C2=O)cc1.O=C(O)C(F)(F)F (stereo partly shown) [Compound 16] was tested, and the IC50 ([1]; GP-AMC 250 µM, 10 nM enzyme, 45 min pre-incubation at 30 °C, read-out: IC50 DPP8) was 14 ± 1 nM, the “DPP8 activity [%]” value ([1]; c 15.625 nM, replicates) was 42.4788% and 41.4194% and 46.9279% and the “DPP8 activity [%]” value ([1]; c 25 nM, replicates) was 28.7129% and 21.6298% and 23.9147%. For the same molecule, the “DPP8 activity [%]” value ([1]; c 31.25 nM, replicates) was 25% and 29.6611% and 26.8008%, the “DPP8 activity [%]” value ([1]; c 50 nM, replicates) was 11.5004% and 14.9276% and 11.5003% and the “DPP8 activity [%]” value ([1]; c 62.5 nM, replicates) was 11.5466% and 15.9958% and 12.9237%. The “DPP8 activity [%]” value ([1]; c 100 nM, replicates) was 5.331% and 3.808% and 3.884%, the “DPP8 activity [%]” value ([1]; c 250 nM, replicates) was 4.449% (2×) and 5.085% and the “DPP8 activity [%]” value ([1]; c 500 nM, replicates) was 3.39% and 4.449% and 3.1779%. For the same molecule, the “DPP8 activity [%]” value ([1]; c 1000 nM, replicates) was 3.496% and 1.907% and 2.6483%, the “DPP8 activity [%]” value ([1]; c = 1.5625 nM inhibitor, individual replicates) was 85.6817% and 91.6222% and 85.0724% and the “DPP8 activity [%]” value ([1]; c = 3.125 nM inhibitor, individual replicates) was 102.513% and 82.8637% and 92.1555%. The “DPP8 activity [%]” value ([1]; c = 6.25 nM inhibitor, individual replicates) was 73.0388% and 69.9924% and 75.3236%, the “DPP8 vs. DPP9 selectivity” value ([1]; from IC50 values) was ~ 21 fold and the “selectivity of DPP8 inhibition over DPP4” value ([1]; from IC50 values) was ~ 1154 fold. For the same molecule, the IC50 ([2]; GP-AMC 250 µM, 10 nM enzyme, 45 min pre-incubation at 30 °C, read-out: IC50 DPP4) was 16200 nM, the “DPP4 activity [%]” value ([2]; c 15.625 nM) was 93.2714% and 107.175% and 106.746% and the “DPP4 activity [%]” value ([2]; c 31.25 nM) was 98.0992% and 97.1086% and 101.856%. For the same molecule, the “DPP4 activity [%]” value ([2]; c 62.5 nM) was 102.891% and 92.9769% and 100.41%, the “DPP4 activity [%]” value ([2]; c 250 nM) was 99.4378% and 98.9828% and 107.906% and the “DPP4 activity [%]” value ([2]; c 500 nM) was 104.087% and 100.437% and 100.482%. The “DPP4 activity [%]” value ([2]; c 1000 nM) was 94.3422% and 97.3674% and 95.7968%, the “DPP4 activity [%]” value ([2]; c 1562.5 nM) was 95.896% and 97.1752% and 96.7627% and the “DPP4 activity [%]” value ([2]; c 3125 nM) was 92.5869% and 89.2118% and 84.6321%. For the same molecule, the “DPP4 activity [%]” value ([2]; c 6250 nM) was 85.4573% and 71.7259% and 79.6149%, the “DPP4 activity [%]” value ([2]; c 25000 nM) was 32.8097% and 29.6905% and 29.938% and the “DPP4 activity [%]” value ([2]; c 50000 nM) was 6.082% and 4.679% and 4.407%. The “DPP4 activity [%]” value ([2]; c 100000 nM) was 0.3548% and 1.386% and 0.7592%, the “kobs DPP8” value ([3]; c 0.003125 µM) was 7.927e-05 s⁻¹ and the “kobs DPP8” value ([3]; c 0.025 µM) was 0.0001486 s⁻¹. For the same molecule, the “kinact DPP8” value [3, 11] was 0.00018 s⁻¹, the KI (inactivation) ([3]; irreversible inhibition, fit of kobs vs inhibitor concentration, read-out: KI DPP8) was 4e-09 ± 2e-09 M and the KI (inactivation) ([3]; source data, read-out: KI [M] best fit DPP8) was 3.53e-09 M. The IC50 ([4]; GP-AMC 250 µM, 10 nM enzyme, 45 min pre-incubation at 30 °C, read-out: IC50 DPP9) was 298 ± 21 nM, the “DPP9 activity [%]” value ([4]; c 15.625 nM) was 90.8881% and 85.3617% and 82.8729% and the “DPP9 activity [%]” value ([4]; c 31.25 nM) was 91.5419% and 83.379% and 89.0951%. For the same molecule, the “DPP9 activity [%]” value ([4]; c 62.5 nM) was 100.148% and 96.4776% and 87.1335%, the “DPP9 activity [%]” value ([4]; c 156.25 nM) was 75.5857% and 64.6658% and 62.3826% and the “DPP9 activity [%]” value ([4]; c 250 nM) was 60.7045% and 50.2004% and 47.0576%. The “DPP9 activity [%]” value ([4]; c 312.5 nM) was 47.5512% and 45.1489% and 49.4375%, the “DPP9 activity [%]” value ([4]; c 500 nM) was 25.3111% and 25.3533% and 24.7205% and the “DPP9 activity [%]” value ([4]; c 625 nM) was 28.2131% and 30.5361% and 23.7856%. The “DPP9 activity [%]” value ([4]; c 1000 nM) was 10.0823% and 10.3775% and 12.2759%, the “DPP9 activity [%]” value ([4]; c 2500 nM) was 5.122% and 5.281% and 6.135% and the “DPP9 activity [%]” value ([4]; c 5000 nM) was 3.4348% and 3.693% and 4.11%. The “DPP9 activity [%]” value ([4]; c 10000 nM) was 2.0053% and 1.966% and 1.707%, the “kobs DPP9” value ([5]; c 0.0625 µM) was 0.0001274 s⁻¹ and the “kobs DPP9” value ([5]; c 0.25 µM) was 0.0002545 s⁻¹. The “kobs DPP9” value ([5]; c 1 µM) was 0.0004155 s⁻¹, the “kinact DPP9” value [5, 11] was 0.0005 ± 0.00007 s⁻¹ and the KI (inactivation) ([5]; irreversible inhibition, fit of kobs vs inhibitor concentration, read-out: KI DPP9) was 2.16e-07 ± 9e-08 M. The KI (inactivation) ([5]; source data, read-out: KI [M] best fit DPP9) was 2.16e-07 M, the “kobs DPP4” value ([6]; c 250 µM) was 0.003317 s⁻¹ and the “kobs DPP4” value ([6]; c 1000 µM) was 0.006797 s⁻¹. For the same molecule, the “kinact DPP4” value [6, 11] was 0.01027 s⁻¹, the “kapp DPP4” value ([6]; ratio kinact/KI) was 20 M⁻¹ s⁻¹ and the KI (inactivation) ([6]; source data, read-out: KI [M] best fit DPP4) was 0.000512 M. For the same molecule, the “Log2-fold change (16/9)” value [7] was 0.1493, the “Log2-fold change (16/9)” value [8] was 0.8543 and the “Log2-fold change (16/9)” value [9] was -1.311. For the same molecule, the “Log2-fold change (16/9)” value [10] was -0.09528.
